Measured values from article PMC6147116 (Journal of Enzyme Inhibition and Medicinal Chemistry, 2018).
Like-named read-outs stand apart in the source and are kept apart here.

Assays:
steroid sulfatase (STS) = biological target: T1, steroid sulfatase (STS) (Homo sapiens, UniProt P08842); assay: STS inhibition, in vitro radiosubstrate incubation (release of E1 from E1S), human placental microsomes; Dixon kinetic analysis; type: biochemical; details: for remaining activity at 10 µM: read-out: STS Rel.conv. ± SD
T1 construct: from tissue; host or cells: human term placenta, microsomal fraction
T1 sequence (P08842 22-583): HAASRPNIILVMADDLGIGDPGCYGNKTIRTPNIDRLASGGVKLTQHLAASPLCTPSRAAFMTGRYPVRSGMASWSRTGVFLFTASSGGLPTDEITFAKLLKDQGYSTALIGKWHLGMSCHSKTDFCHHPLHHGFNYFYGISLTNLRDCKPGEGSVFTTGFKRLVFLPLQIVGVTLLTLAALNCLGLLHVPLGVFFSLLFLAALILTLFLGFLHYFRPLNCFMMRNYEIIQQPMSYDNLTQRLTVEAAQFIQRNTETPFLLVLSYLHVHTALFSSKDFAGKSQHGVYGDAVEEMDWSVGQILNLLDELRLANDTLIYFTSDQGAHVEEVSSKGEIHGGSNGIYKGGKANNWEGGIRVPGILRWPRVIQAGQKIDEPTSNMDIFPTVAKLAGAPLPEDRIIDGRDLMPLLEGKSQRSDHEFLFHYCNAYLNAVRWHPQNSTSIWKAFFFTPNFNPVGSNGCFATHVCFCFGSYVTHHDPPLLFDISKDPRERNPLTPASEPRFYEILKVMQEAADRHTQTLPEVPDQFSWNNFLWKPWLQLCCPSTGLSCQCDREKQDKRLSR
Description: (§1) Enzyme inhibition studies were performed by in vitro radiosubstrate incubations using human term placenta cytosol and microsomas as enzyme sources. […] Relative conversions compared to non-inhibited controls (100%) were measured in the presence of 10 µM concentration of the test compound. […] Mechanistic and kinetic investigations were performed and inhibitory constants (Ki) were determined for selected compounds.
Kinetic analyses of selected compounds 7a and 16c were performed by measurement of enzyme activities using different fixed substrate concentrations and varied inhibitor concentrations.
(§2) Enzymatic incubations were carried out in the HEPES buffer medium at a final volume of 200
(§3) µl. The substrate was added to the incubate in 20 µl of a 25 v/v% propylene glycol in HEPES buffer solution, whereas test compounds were applied in 10 µl of dimethyl sulfoxide solution.
(§4) Incubations were performed at 37 °C and terminated by cooling and the addition of organic solvents of the subsequent extraction procedure. Control samples with no inhibitor and blank samples were incubated simultaneously. […]
The incubation time was 2.5 min. […]
(§5) In the general procedure, incubations were performed as described. Concentrations of the substrates were 1.0 µM, and the test compounds were applied at 10 µM final concentration in the incubate. Relative conversions compared to non-inhibited controls (100%) were determined. The assays were performed in triplicate, and the mean value and the standard deviation (SD) were calculated. […]
(§6) these cases, conversions were measured at 10–15 different concentrations in the appropriate interval between 0.001–50 µM. IC50 results were calculated by using unweighted iterative least squares logistic curve fitting by means of the “absolute IC50 calculation“ function of the GraphPad Prism 4.0 software (GraphPad Software, Inc., San Diego, CA, USA).
(§7) Kinetic analyses were performed via measurement of the enzymatic transformation using different fixed substrate concentrations and varied inhibitor concentrations. The Dixon’s linear transformation (1/velocity vs. inhibitor concentration) was applied for evaluation and the inhibition constant (Ki) was determined from abscissa of intersection of the lines of different substrate concentrations. Mechanism of binding was identified according to the Dixon’s graphs and the secondary plot of slopes of the Dixon’s lines vs. 1/substrate […]
The inhibitor compounds were preincubated with the appropriate placenta fraction in a volume of 4.0 µl at 37 °C for various time periods (2.5-40 min). Following this procedure, […]

human aromatase = biological target: T2, human aromatase (Homo sapiens, UniProt P11511); assay: Aromatase inhibition, in vitro radiosubstrate incubation (testosterone to E2 conversion), human placental microsomes; type: biochemical; details: for remaining activity at 10 µM: read-out: Arom Rel.conv. ± SD
T2 construct: from tissue; host or cells: human term placenta, microsomal fraction
T2 sequence (P11511 1-503): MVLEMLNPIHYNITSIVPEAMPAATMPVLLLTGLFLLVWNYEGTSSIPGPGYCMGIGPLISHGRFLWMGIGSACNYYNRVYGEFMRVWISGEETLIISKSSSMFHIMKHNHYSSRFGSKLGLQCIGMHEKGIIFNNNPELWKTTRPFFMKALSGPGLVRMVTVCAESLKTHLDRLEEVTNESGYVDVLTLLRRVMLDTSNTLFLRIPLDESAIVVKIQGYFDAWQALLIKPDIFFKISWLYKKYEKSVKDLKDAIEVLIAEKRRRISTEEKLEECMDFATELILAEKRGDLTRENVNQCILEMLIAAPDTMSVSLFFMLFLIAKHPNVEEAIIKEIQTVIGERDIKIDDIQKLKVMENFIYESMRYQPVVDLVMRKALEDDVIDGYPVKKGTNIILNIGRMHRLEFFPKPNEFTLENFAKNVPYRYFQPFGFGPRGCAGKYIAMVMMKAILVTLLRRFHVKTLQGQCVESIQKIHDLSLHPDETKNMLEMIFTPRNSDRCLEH
Description: as §1, §2, §3
as §4, with “simultaneously. The radioactivity of the products formed was measured by means of liquid scintillation counting (LSC) and taken as indicator of the” for “simultaneously.”
In the aromatase assays the microsoma suspension was incubated with appropriate concentration of unlabelled testosterone (2) substrate spiked with [1,2,6,7-3H]testosterone tracer, and in the presence of 0.1 mM NADPH cofactor excess. (In this case, solution of the substrate was prepared with acetonitrile instead of propylene glycol.) Incubation time was 40 min. The incubation mixture was extracted with toluene, then the toluene phase was drained and washed with HEPES buffer. Aromatase products containing phenolic hydroxy group were extracted with 1.2 M sodium hydroxide solution from the toluene extract and the alkaline phase was measured in the LSC. […]
was extracted with toluene. […]
as §5, §6
as §7, with “the” for “the Dixon’s graphs and the secondary plot of slopes of the Dixon’s lines vs. 1/substrate”

aromatase enzyme = biological target: aromatase enzyme; design: method as in PMID 16039845; details: cited from earlier work
[1] = biological target: T3, 17β-hydroxysteroid dehydrogenase type 1 (17β-HSD1) (Homo sapiens, UniProt P14061); assay: 17β-HSD1 inhibition, in vitro radiosubstrate incubation (E1 to E2), human placental cytosol; Dixon kinetic analysis; type: biochemical; details: for IC50: E1 substrate 1.0 µM, NADPH excess; for 17β-HSD1 Rel.conv. ± SD: 10 µM test compound, non-inhibited control 100%, mean ± SD, n = 3
T3 sequence (P14061 1-328): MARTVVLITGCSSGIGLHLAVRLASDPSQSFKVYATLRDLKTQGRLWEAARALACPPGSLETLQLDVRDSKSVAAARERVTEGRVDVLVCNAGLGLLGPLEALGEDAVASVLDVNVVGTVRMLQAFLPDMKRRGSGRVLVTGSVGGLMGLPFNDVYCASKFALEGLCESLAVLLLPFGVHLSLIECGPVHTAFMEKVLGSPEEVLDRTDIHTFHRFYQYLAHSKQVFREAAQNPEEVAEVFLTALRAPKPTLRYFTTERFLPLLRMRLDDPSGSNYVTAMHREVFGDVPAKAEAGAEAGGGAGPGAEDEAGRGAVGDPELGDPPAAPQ
Description: as §1
Inhibitors that bind to the steroid site of 17β-HSD1 can bind to both the free enzyme and the binary enzyme–cofactor complex by random kinetic mechanism.
as §2, §3, §4
The incubation time was 2.5 min. The product 17β-estradiol (E2, 5) was extracted with ethyl acetate and isolated by a TLC method (details are published in our earlier reference).
as §5, §6, §7
The inhibitor compounds were preincubated with the appropriate placenta fraction in a volume of 4.0 µl at 37 °C for various time periods (2.5-40 min). Following this procedure, samples were diluted with the incubation medium to 50-fold. Enzyme activity measurements

[2] = biological target: T3, 17β-hydroxysteroid dehydrogenase type 1 (17β-HSD1); details: earlier paper of the authors; read-out: 17β-HSD1 IC50 ± SD; cited from earlier work
[3] = 10 µM test compound, non-inhibited control 100%, mean ± SD, n = 3
[4] = E1S substrate 1.0 µM, read-out: STS IC50 ± SD

Row | Structure (SMILES) | remaining activity at 10 µM (human aromatase; [3]) [%] | IC50 ([1]; read-out: 17β-HSD1 IC50 ± SD) [nM] | IC50 (steroid sulfatase (STS); [4]) [nM] | remaining activity at 10 µM (steroid sulfatase (STS); [3]) [%] | further results
1 | C[C@]12CC[C@@H]3c4ccc(O)cc4CC[C@H]3[C@@H]1CCC2=O [E1 (4), estrone, reference compound] | 78 |  |  |  | IC50 (steroid sulfatase (STS)): 24000 ± 10000 nM; IC50 (human aromatase): > 10000 nM; Ki (aromatase enzyme): 2500 nM
2 | C[C@]12CCC[C@H]1[C@@H]1CCc3cc(O)c(Br)cc3[C@H]1CC2 [14b] | 97 ± 5 | 1300 ± 800 | 4100 ± 1300 |  | 
3 | C[C@]12CCC[C@H]1[C@@H]1CCc3c(ccc(O)c3Cl)[C@H]1CC2 [15c] | 89 ± 1 | 4500 ± 2000 | 6300 ± 1800 |  | 
4 | C[C@]12CC[C@@H]3c4cc(I)c(O)c(I)c4CC[C@H]3[C@@H]1CCC2=O [8a] | 86 ± 6 |  |  | 80 ± 13 | 17β-HSD1 Rel.conv. ± SD [1]: 55 ± 7%
5 | C[C@@]12CC[C@@H]3c4cc(Br)c(O)c(Br)c4CC[C@H]3[C@@H]1CCC2=O [12b] | 108 ± 11 |  |  | 71 ± 4 | IC50 [2]: 2700 ± 100 nM
6 | C[C@@]12CC[C@@H]3c4cc(I)c(O)cc4CC[C@H]3[C@@H]1CCC2=O [10a] | 82 ± 10 |  |  | 83 ± 3 | IC50 [2]: 590 ± 230 nM
7 | C[C@]12CCC[C@H]1[C@@H]1CCc3c(ccc(O)c3Br)[C@H]1CC2 [15b] | 90 ± 8 | 11000 ± 4000 | 3700 ± 1200 |  | 17β-HSD1 Rel.conv. ± SD [1]: 49 ± 12%
8 | C[C@@]12CC[C@@H]3c4ccc(O)c(Cl)c4CC[C@H]3[C@@H]1CCC2=O [11c] |  |  |  |  | IC50 ([1]; 17β-HSD1 IC50 ± SD): 2600 ± 1000 nM; remaining activity at 10 µM (steroid sulfatase (STS)): 80 ± 7%; remaining activity at 10 µM (human aromatase): 98 ± 3%
9 | C[C@]12CCC[C@H]1[C@@H]1CCc3cc(O)c(Cl)cc3[C@H]1CC2 [14c] | 88 ± 10 | 2600 ± 1300 | 7000 ± 1900 |  | 
10 | C[C@@]12CC[C@@H]3c4cc(Cl)c(O)cc4CC[C@H]3[C@@H]1CCC2=O [10c] | 106 ± 6 | 330 ± 100 |  | 57 ± 1 | 
11 | C[C@]12CC[C@@H]3c4cc(I)c(O)cc4CC[C@H]3[C@@H]1CCC2=O [6a, 2-Iodoestrone] | 66 | 64 ± 34 |  | 64 ± 3 | IC50 (human aromatase; testosterone substrate 1.0 µM, read-out: Arom IC50 ± SD): > 10000 nM
12 | C[C@@]12CC[C@@H]3c4cc(Br)c(O)cc4CC[C@H]3[C@@H]1CCC2=O [10b] | 100 ± 5 |  |  | 81 ± 6 | IC50 [2]: 1200 ± 300 nM
13 | C[C@]12CCC[C@H]1[C@@H]1CCc3c(cc(I)c(O)c3I)[C@H]1CC2 [16a] | 94 ± 2 |  |  | 59 ± 13 | 17β-HSD1 Rel.conv. ± SD [1]: 61 ± 7%
14 | C[C@]12CC[C@@H]3c4cc(Cl)c(O)c(Cl)c4CC[C@H]3[C@@H]1CCC2=O [8c] |  |  |  |  | IC50 ([1]; 17β-HSD1 IC50 ± SD): 590 ± 160 nM; IC50 (steroid sulfatase (STS)): 3000 ± 900 nM; remaining activity at 10 µM (human aromatase): 82 ± 4%
15 | C[C@@]12CC[C@@H]3c4ccc(O)cc4CC[C@H]3[C@@H]1CCC2=O [compound 9, 13α-Estrone] | 85 ± 13 |  |  | 96 ± 1 | 
16 | C[C@]12CCC[C@H]1[C@@H]1CCc3c(ccc(O)c3I)[C@H]1CC2 [15a] | 92 ± 7 |  | 2700 ± 1300 |  | 17β-HSD1 Rel.conv. ± SD [1]: 57 ± 9%
17 | C[C@]12CCC[C@H]1[C@@H]1CCc3cc(O)c(I)cc3[C@H]1CC2 [14a] | 89 ± 9 | 2900 ± 1600 | 3900 ± 1600 |  | 
18 | C[C@]12CC[C@@H]3c4cc(Br)c(O)c(Br)c4CC[C@H]3[C@@H]1CCC2=O [8b] | 81 ± 5 | 960 ± 450 | 2100 ± 600 |  | 
19 | C[C@@]12CC[C@@H]3c4cc(Cl)c(O)c(Cl)c4CC[C@H]3[C@@H]1CCC2=O [12c] |  |  |  |  | IC50 ([1]; 17β-HSD1 IC50 ± SD): 2200 ± 600 nM; remaining activity at 10 µM (steroid sulfatase (STS)): 70 ± 3%; remaining activity at 10 µM (human aromatase): 101 ± 4%
20 | C[C@]12CC[C@@H]3c4ccc(O)c(Cl)c4CC[C@H]3[C@@H]1CCC2=O [7c] |  |  |  |  | IC50 ([1]; 17β-HSD1 IC50 ± SD): 600 ± 160 nM; IC50 (steroid sulfatase (STS)): 1600 ± 300 nM; remaining activity at 10 µM (human aromatase): 92 ± 3%
21 | C[C@]12CCC[C@H]1[C@@H]1CCc3c(cc(Br)c(O)c3Br)[C@H]1CC2 [16b] |  |  |  |  | IC50 ([1]; 17β-HSD1 IC50 ± SD): 4100 ± 2500 nM; IC50 (steroid sulfatase (STS)): 7500 ± 2000 nM; remaining activity at 10 µM (human aromatase): 82 ± 6%
22 | C[C@]12CCC[C@H]1[C@@H]1CCc3cc(O)ccc3[C@H]1CC2 [compound 13, 17-deoxy-13α-estrone] | 95 ± 12 | 1100 ± 330 |  | 76 ± 5 | Ki ([1]; from Dixon plot, cofactor excess): 2000 nM
23 | C[C@]12CC[C@@H]3c4ccc(O)c(Br)c4CC[C@H]3[C@@H]1CCC2=O [7b, 4-bromoestrone] | 91 ± 6 | 300 ± 200 | 890 ± 300 |  | 
24 | C[C@@]12CC[C@@H]3c4ccc(O)c(Br)c4CC[C@H]3[C@@H]1CCC2=O [11b] | 78 ± 1 |  | 8500 ± 3100 |  | IC50 [2]: 2100 ± 1200 nM
